The source of these data is US20210261561A1, “BICYCLIC HETEROCYCLE DERIVATIVES HAVING SELECTIVE BACE1 INHIBITORY ACTIVITY” (SHIONOGI & CO., LTD., priority 2018, published 2021).

In experiment [1] the target is T1, BACE1 (Homo sapiens, UniProt P56817). As to the kind of experiment: BACE1 biochemical FRET based assay - Method 1 (Test Example 2-2). To be noted: 0.04 μg/mL BACE1, 450 minutes, Citrate buffer pH 5.0, read-out: BACE1 Biochemical FRET based assay - Method 1 PIC50 (converted). The text has this:
(§1) This assay is a Fluorescence Resonance Energy Transfer Assay (FRET) based assay. The substrate for this assay is an APP derived 13 amino acids peptide that contains the ‘Swedish’ Lys-Met/Asn-Leu mutation of the amyloid precursor protein (APP) beta-site secretase cleavage site. This substrate also contains two fluorophores: (7-methoxycoumarin-4-yl) acetic acid (Mca) is a fluorescent donor with excitation wavelength at 320 nm and emission at 405 nm and 2,4-dinitrophenol (Dnp) is a proprietary quencher acceptor. […] Upon cleavage by BACE1, the fluorophore Mca is separated from the quenching group Dnp, restoring the full fluorescence yield of the donor. The increase in fluorescence is linearly related to the rate of proteolysis.
(§2) Briefly in a 384-well format recombinant BACE1 protein in a final concentration of 0.04 μg/mL is incubated for 450 minutes at room temperature with […] substrate in incubation buffer (final concentrations: 33.3 mM Citrate buffer pH 5.0, 0.033% PEG, 3% DMSO) in the absence or presence of compound. Next the amount of proteolysis is directly measured by fluorescence measurement at T=0′-120′ and T=450′ (excitation at 320 nm and emission at 405 nm). Results are expressed in RFU (Relative Fluorescence Units), as difference between T450 and Tx (Tx is chosen depending on the reaction speed between 0 and 120 minutes.).
(§3) Data are analysed using Screener (Registered trademark) (Genedata, Switzerland). Data were normalized and % inhibition=100−[(sample−LC)/(HC−LC))*100], was plotted versus the log concentration of the test compound. Curves were analysed using non-linear regression analysis and IC50 values (inhibitory concentration causing 50% inhibition of activity) were derived from individual curves.
(§4) LC=Median of the low control values
(§5) =Low control: Reaction without enzyme
(§6) HC=Median of the High control values
(§7) =High Control: Reaction with enzyme
(§8) % Inhibition=100−[(sample−LC)/(HC−LC)*100]

Experiment [2] deals with T2, BACE2 (Homo sapiens, UniProt Q9Y5Z0).
T2 sequence (Q9Y5Z0 63-518): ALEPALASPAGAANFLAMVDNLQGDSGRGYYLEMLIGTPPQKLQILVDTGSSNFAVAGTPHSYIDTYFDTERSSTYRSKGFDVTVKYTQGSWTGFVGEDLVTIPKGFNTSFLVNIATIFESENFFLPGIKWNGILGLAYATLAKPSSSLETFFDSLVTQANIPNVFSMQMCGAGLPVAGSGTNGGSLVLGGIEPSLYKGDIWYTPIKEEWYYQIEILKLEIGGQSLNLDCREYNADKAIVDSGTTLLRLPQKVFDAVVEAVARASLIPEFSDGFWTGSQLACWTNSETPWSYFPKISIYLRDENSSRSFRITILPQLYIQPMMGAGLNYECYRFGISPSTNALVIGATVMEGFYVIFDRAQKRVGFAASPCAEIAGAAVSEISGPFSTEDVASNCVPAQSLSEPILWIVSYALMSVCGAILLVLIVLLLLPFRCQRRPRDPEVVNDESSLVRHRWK
As to the kind of experiment: BACE2 biochemical FRET based assay (Test Example 2-4). To be noted: recombinant BACE2 0.4 μg/mL, 10 μM substrate, 450 minutes, pH 5.0; read-out: BACE2 Biochemical FRET based assay pIC50 (converted).
Source text: as §1, with “assay” for “assay is an APP derived 13 amino acids peptide that”, “beta-secretase” for “beta-site secretase”, “the beta-secretase,” for “BACE1,”
Briefly in a 384-well format recombinant BACE2 protein in a final concentration of 0.4 μg/mL is incubated for 450 minutes at room temperature with 10 μM substrate in incubation buffer (final concentrations: 33.3 mM Citrate buffer pH 5.0, 0.033% PEG, 2% DMSO) in the absence or presence of compound. Next the amount of proteolysis is directly measured by fluorescence measurement at T=0 and T=450 (excitation at 320 nm and emission at 405 nm). Results are expressed in RFU (Relative Fluorescence Units), as difference between T450 and TO.
as §3, §4, §5, §6, §7, §8

For experiment [3], the target named is T3, BACE2 (Mus musculus, UniProt Q9JL18).
T3 construct: endogenous in cells; host or cells: MIN6 mouse insulinoma cells expressing Flag-V5-TMEM27-HA
T3 sequence (Q9JL18 63-514): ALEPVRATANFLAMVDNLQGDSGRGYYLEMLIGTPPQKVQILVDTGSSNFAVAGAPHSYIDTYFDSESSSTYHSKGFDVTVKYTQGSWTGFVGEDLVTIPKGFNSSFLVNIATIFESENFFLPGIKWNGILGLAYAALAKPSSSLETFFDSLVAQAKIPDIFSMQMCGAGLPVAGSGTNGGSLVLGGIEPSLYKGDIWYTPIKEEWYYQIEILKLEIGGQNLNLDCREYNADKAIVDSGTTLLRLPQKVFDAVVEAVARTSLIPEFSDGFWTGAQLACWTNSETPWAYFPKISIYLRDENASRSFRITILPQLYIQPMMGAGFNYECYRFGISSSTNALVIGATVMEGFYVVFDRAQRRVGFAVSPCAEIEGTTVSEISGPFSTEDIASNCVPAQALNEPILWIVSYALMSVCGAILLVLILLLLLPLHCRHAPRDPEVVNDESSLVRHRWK
As to the kind of experiment: BACE2 cellular assay in MIN6 cells, secreted TMEM27 (Test Example 2-5). The format is cell-based. The settings on record: 24 hours incubation, secreted TMEM27 by MSD, read-out: Cellular MSD assay in Min6 cells TV1EV127 pIC50 (converted). As for the experimental part: Cellular BACE2 activity was measured by determination of the level of secreted TMEM27 into the medium of MIN6 cells using an MSD platform. The assay is based on the mouse insulinoma MIN6 cells expressing Flag-V5-TMEM27-HA. When BACE2 cleaves TMEM27 the N-terminal part of TMEM27 with the V5-Flag tag will be shed into the medium, and the amount of this cleaved product is measured with the MSD assay.
Briefly in a 96-well format the cells are incubated for 24 hours in the presence of the compound followed by the measurement of secreted TMEM27 in the medium via MSD using FLAG-L5 coating antibody and a V5 detection antibody. When TMEM27 is captured on the electrode surface of the multi-array microplate the detection antibody, conjugated with the sulfo-Tag™, is in close proximity of the surface, it generates a light via a series of reduction and oxidation reactions. The intensity of the emitted light is measured with the MSD imager to provide a quantitative measure for the analytes in the sample.
as §3, §4, §5, §6, §7, §8

Experiment [4] deals with T1, BACE1. The experiment in a line: BACE1 cellular αLisa assay in SKNBE2 cells, Abeta 1-42 (Test Example 2-3). The format is cell-based. Further details: endogenous in cells; host or cells: SKNBE2 human neuroblastoma cells expressing hAPP695. The settings on record: SKNBE2 cells expressing hAPP695, 18 hours incubation, read-out: Cellular αLisa assay in SKNBE2 cells Abeta 42 pIC50 (converted). Here is the method: In two αLisa assays the levels of Abeta 1-42 or Abeta total produced and secreted into the medium of human neuroblastoma SKNBE2 cells are quantified. The assays are based on the human neuroblastoma SKNBE2 expressing the wild type Amyloid Precursor Protein (hAPP695). The compounds are diluted and added to these cells, incubated for 18 hours and then measurements of Abeta 1-42 or Abeta total are taken. Abeta 1-42 or Abeta total are measured by sandwich αLisa using biotinylated antibody AbN/25 attached to streptavidin coated donor beads and antibody cAb42/26 or Ab 4G8 conjugated acceptor beads for the detection of Abeta 1-42 or Abeta total respectively. In the presence of Abeta 1-42 or Abeta total, the beads come into close proximity. The excitation of the donor beads provokes the release of singlet oxygen molecules that trigger a cascade of energy transfer in the acceptor beads, resulting in light emission. Light emission is measured after 1 h incubation (excitation at […] and emission at 615 nm).
as §3
LC=Median of the low control values • =Low control: Reaction without enzyme
HC=Median of the High control values • =High Control: Reaction with enzyme
as §8

The target in experiment [5] is T1, BACE1. The experiment in a line: BACE1 biochemical FRET based assay (Test Example 2-1). The settings on record: for selectivity: BACE2 IC50 over BACE1 IC50 (FRET); for IC50: FRET, 0.04 μg/mL BACE1, 450 minutes, Citrate buffer pH 5.0.
Source text: as §1, §2
A best-fit curve is fitted by a minimum sum of squares method to the plot of % Controlmin versus compound concentration. From this an IC50 value (inhibitory concentration causing 50% inhibition of activity) can be obtained.

Experiment [6] has as its target T2, BACE2. As to the kind of experiment: BACE2 biochemical FRET based assay (Test Example 2-1 (2)). To be noted: 0.4 μg/mL BACE2, 450 minutes, Citrate buffer pH 5.0. An excerpt:
This assay is a Fluorescence Resonance Energy Transfer Assay (FRET) based assay. The substrate for this assay contains the ‘Swedish’ Lys-Met/Asn-Leu mutation of the amyloid precursor protein (APP) beta-secretase cleavage site. This substrate also contains two fluorophores: (7-methoxycoumarin-4-yl) acetic acid (Mca) is a fluorescent donor with excitation wavelength at 320 nm and emission at 405 nm and 2,4-dinitrophenol (Dnp) is a proprietary quencher acceptor. […] Upon cleavage by the beta-secretase, the fluorophore Mca is separated from the quenching group Dnp, restoring the full fluorescence yield of the donor. The increase in fluorescence is linearly related to the rate of proteolysis. Briefly in a 384-well format recombinant BACE2 protein in a final concentration of 0.4 μg/mL was incubated for 450 minutes at room temperature with 10 μM substrate in incubation buffer (final concentrations: 33.3 mM Citrate buffer pH 5.0, 0.033% PEG, 2% DMSO) in the absence or presence of compound. Next the amount of proteolysis was directly measured by fluorescence measurement at T=0 and T=450 (excitation at 320 nm and emission at 405 nm). Results were expressed in RFU (Relative Fluorescence Units), as difference between T450 and TO.
A best-fit curve was fitted by a minimum sum of squares method to the plot of % Controlmin versus compound concentration. From this an IC50 value (inhibitory concentration causing 50% inhibition of activity) can be obtained.

T1 sequence (P56817 46-501): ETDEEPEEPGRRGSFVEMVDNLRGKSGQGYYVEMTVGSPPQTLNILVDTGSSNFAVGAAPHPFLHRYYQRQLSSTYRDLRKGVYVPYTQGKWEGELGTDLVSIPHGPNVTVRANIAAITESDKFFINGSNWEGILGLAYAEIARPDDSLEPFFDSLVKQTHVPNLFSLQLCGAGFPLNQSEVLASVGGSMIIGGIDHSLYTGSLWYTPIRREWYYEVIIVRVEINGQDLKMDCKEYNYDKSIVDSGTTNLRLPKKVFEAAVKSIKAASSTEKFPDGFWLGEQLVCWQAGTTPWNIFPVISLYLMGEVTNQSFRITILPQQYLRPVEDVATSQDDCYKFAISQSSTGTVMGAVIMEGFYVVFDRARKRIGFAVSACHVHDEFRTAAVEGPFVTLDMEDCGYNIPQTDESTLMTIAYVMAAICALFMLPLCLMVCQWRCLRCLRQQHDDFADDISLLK

Consider `[2H]C1([2H])Oc2cnc(C(=O)Nc3ccc(F)c(C4(CF)CCC(C)(S(C)(=O)=O)C(N)=N4)c3)c(F)c2OC1([2H])[2H]` (centres unmarked) [II-12], for which the IC50 at BACE1 [1] is 4.07 nM; at BACE2 [2], 372 nM; on BACE2 [3], 661 nM; on BACE1 [4] it was 2.57 nM.

Regarding `CCS(=O)(=O)C1(CF)CCC(C)(c2cc(NC(=O)c3cc4c(cn3)OC(F)(F)CO4)ccc2F)N=C1N` (centres unmarked) [II-34], the IC50 on BACE1 [1] is 3.24 nM; at BACE2 [2], 155 nM; on BACE2 [3], 295 nM; at BACE1 [4] it was 3.31 nM.

At BACE1 [5], `C[C@H]1COc2cc(C(=O)Nc3ccc(F)c([C@]4(C)CS(=O)(=O)N(C)C(N)=N4)c3)ncc2O1` [Compound I-008] displayed a selectivity of 22.9 and an IC50 of 9.6 nM. Besides, the IC50 against BACE2 [6] was 219 nM.

With `C[C@@H]1OC[C@H]2OC(N)=N[C@](CF)(c3cc(NC(=O)c4cc5c(cn4)OC(F)(F)CO5)ccc3F)[C@@H]12` [Compound I-044], the selectivity on BACE1 [5] stood at 131. For the same compound, the IC50 was found to be 14.5 nM against BACE1 [5] and 1910 nM against BACE2 [6].

Take `NC1=N[C@](CF)(c2cc(NC(=O)c3cc4c(cn3)OC(F)(F)CO4)ccc2F)[C@H]2OCC[C@H]2O1` [Compound I-043]: on BACE1 [5], the selectivity is given as 234 and the IC50 turned out to be 9.77 nM. On BACE2 [6], this compound gave an IC50 of 2290 nM.

The compound `CN1C(N)=N[C@](C)(c2cc(NC(=O)c3cc4c(cn3)OCC(F)(F)O4)ccc2F)CS1(=O)=O` [Compound I-004] came in with a selectivity at BACE1 [5] of 38.9. The figures for the IC50 on BACE1 [5] and against BACE2 [6] were 13.2 nM and 513 nM, respectively.

As for `CN1C(N)=N[C@](C)(c2cc(NC(=O)c3cc4c(cn3)O[C@H](F)CO4)ccc2F)CS1(=O)=O` [Compound I-015], the selectivity on BACE1 [5] was 10.5. Further, the IC50 against BACE1 [5] worked out at 1.3 nM; against BACE2 [6], 13.5 nM.

For `NC1=N[C@](CF)(c2cc(NC(=O)c3cc4c(cn3)OC[C@H](F)O4)ccc2F)[C@H]2COCC[C@H]2O1` [Compound I-037], on BACE1 [5], the selectivity was 263 and the IC50 was determined as 20.9 nM. Also, at BACE2 [6], the IC50 came to 5500 nM.

`C[C@@H]1COc2cnc(C(=O)Nc3ccc(F)c([C@]4(C)CS(=O)(=O)N(C)C(N)=N4)c3)cc2O1` [Compound I-002]: on BACE1 [5], the selectivity is listed as 44.7 and the IC50 was 9.6 nM. Also, the IC50 against BACE2 [6] came to 427 nM.

In turn, `CN1C(N)=N[C@](C)(c2cc(NC(=O)c3cc4c(cn3)OC[C@H](F)O4)ccc2F)CS1(=O)=O` [Compound I-007] registered a selectivity at BACE1 [5] of 28.8. In addition, the IC50 worked out at 2.1 nM on BACE1 [5] and 61.7 nM against BACE2 [6].

`CC1(C)C(N)=N[C@](C)(c2cc(NC(=O)c3cc4c(cn3)OCCO4)ccc2F)CS1(=O)=O` [Compound I-020] had a selectivity on BACE1 [5] of 64.5. Also, the IC50 against BACE1 [5] is 3.2 nM; on BACE2 [6], 209 nM.

At BACE1 [5], `Cn1cc([C@@H]2OC[C@H]3OC(N)=N[C@](C)(c4cc(NC(=O)c5cc6c(cn5)OCCO6)ccc4F)[C@H]32)cn1` [Compound I-032] showed a selectivity of 112 and an IC50 of 89.1 nM. The compound also returned an IC50 against BACE2 [6] of 10000 nM.
